# Results as given in ChEMBL document CHEMBL3882727, “Imidazopyridine Kinase Inhibitors” (2008).
# What was measured:
# [1] = biological target: T1, Insulin-like growth factor 1 receptor (Homo sapiens, UniProt P08069); experiment: Inhibition of human GST-rTEV-tagged IGF1R (957 to 1367 residues) expressed in baculovirus infected insect Sf9 cells assessed as decrease in biotin-aminohexyl-AEEEEYMMMMAKKKK-NH2 phosphorylation after 1 hr by fluorometer
# Insulin receptor [2] = biological target: T2, Insulin receptor (Homo sapiens, UniProt P06213); experiment: Inhibition of human GST-rTEV-tagged insulin receptor (979 to 1382 residues) expressed in baculovirus infected insect Sf9 cells assessed as decrease in biotin-aminohexyl-AEEEEYMMMMAKKKK-NH2 phosphorylation after 1 hr by fluorometer
# T2 sequence (P06213 28-758 limits assumed): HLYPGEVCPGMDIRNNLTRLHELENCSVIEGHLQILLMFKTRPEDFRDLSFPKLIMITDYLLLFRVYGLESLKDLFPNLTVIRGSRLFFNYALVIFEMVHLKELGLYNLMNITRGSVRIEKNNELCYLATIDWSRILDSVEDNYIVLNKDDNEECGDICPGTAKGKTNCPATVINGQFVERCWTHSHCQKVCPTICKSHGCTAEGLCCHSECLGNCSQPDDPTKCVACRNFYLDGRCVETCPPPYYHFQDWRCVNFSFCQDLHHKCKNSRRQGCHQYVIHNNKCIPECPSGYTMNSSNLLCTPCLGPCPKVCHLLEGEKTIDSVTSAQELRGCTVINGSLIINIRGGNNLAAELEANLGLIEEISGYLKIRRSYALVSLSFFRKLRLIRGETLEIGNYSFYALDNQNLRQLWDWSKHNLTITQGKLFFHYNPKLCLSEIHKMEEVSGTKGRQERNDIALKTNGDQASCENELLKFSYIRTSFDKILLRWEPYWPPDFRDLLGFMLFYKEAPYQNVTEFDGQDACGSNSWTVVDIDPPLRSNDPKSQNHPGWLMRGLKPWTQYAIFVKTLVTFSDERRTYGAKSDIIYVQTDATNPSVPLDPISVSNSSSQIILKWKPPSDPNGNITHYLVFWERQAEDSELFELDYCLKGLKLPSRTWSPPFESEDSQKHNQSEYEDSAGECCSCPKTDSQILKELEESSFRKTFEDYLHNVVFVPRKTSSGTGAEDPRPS
# T2 sequence (P06213 763-1382 limits assumed): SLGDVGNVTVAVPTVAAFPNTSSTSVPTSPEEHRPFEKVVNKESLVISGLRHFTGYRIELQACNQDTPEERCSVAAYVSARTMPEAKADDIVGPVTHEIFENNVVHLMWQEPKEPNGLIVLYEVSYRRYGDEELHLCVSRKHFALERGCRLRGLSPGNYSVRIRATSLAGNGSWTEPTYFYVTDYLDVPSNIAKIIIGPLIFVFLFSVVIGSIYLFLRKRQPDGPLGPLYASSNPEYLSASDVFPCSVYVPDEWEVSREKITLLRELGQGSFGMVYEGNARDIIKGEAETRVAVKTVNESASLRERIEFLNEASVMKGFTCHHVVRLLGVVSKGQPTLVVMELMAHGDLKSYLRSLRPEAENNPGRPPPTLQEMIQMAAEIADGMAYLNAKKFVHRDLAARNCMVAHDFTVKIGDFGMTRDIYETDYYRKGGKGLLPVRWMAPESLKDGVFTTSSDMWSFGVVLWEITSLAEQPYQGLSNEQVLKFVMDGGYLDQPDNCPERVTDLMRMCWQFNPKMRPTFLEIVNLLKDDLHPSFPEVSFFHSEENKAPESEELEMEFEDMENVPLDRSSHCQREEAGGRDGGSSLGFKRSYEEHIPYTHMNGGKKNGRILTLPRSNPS
# [3] = biological target: T1, Insulin-like growth factor 1 receptor; experiment: Inhibition of IGF1-induced human IGF1R autophosphorylation expressed in mouse NIH-3T3 cells preincubated for 2 hrs followed by IGF-1 induction measured after 15 mins by DELFIA; assay type: cell-based, NIH3T3
# Insulin receptor [4] = biological target: T2, Insulin receptor; experiment: Inhibition of insulin-induced human insulin receptor autophosphorylation expressed in mouse NIH-3T3 cells preincubated for 2 hrs followed by insulin induction measured after 15 mins by DELFIA; assay type: cell-based, NIH3T3
# [5] = Cytotoxicity against human NCI-H929 cells assessed as cell growth inhibition after 72 hrs by Cell Titre Glo assay; assay type: functional, cell-based; conditions: NCI-H929, 72 h
# [6] = Cytotoxicity against human COLO205 cells assessed as cell growth inhibition after 72 hrs by Cell Titre Glo assay; assay type: functional, cell-based; conditions: COLO 205, 72 h
# [7] = Toxicity in nude mouse xenografted with human BT474 cells assessed as body weight loss at 15 to 60 mg/kg, qd for 3 weeks without dosing on weekends measured during compound dosing; assay type: organism-based, BT-474; conditions: in vivo, 504 h
# [8] = Antitumor activity against human COLO205 cells xenografted in nude mouse assessed as tumor growth inhibition at 10 mg/kg, qd for 21 days relative to vehicle-treated control; assay type: functional; conditions: COLO 205, 504 h, read-out: TGI
# [9] = Toxicity in nude mouse xenografted with human BT474 cells assessed as body weight loss at 15 mg/kg, bid for 3 weeks without dosing on weekends measured during compound dosing; assay type: organism-based, BT-474; conditions: in vivo, 504 h
# [10] = Toxicity in nude mouse xenografted with human COLO205 cells assessed as body weight loss at 100 mg/kg, qd for 21 days measured within 10 days of compound dosing relative to vehicle-treated control; assay type: organism-based, COLO 205; conditions: in vivo
# [11] = Growth inhibition of human MDA-MB-468 cells assessed as combination index in presence of lapatinib after 3 days by methylene blue staining-based assay; assay type: functional
# [12] = Toxicity in nude mouse allografted with mouse LISN cells assessed as body weight loss at 15 mg/kg, bid for 21 days measured during compound dosing; assay type: organism-based; conditions: in vivo, 504 h
# [13] = Growth inhibition of human A549 cells assessed as combination index in presence of lapatinib after 3 days by methylene blue staining-based assay; assay type: functional
# [14] = Toxicity in nude mouse xenografted with human COLO205 cells assessed as body weight loss at 30 mg/kg, bid for 21 days measured within 10 days of compound dosing relative to vehicle-treated control; assay type: organism-based, COLO 205; conditions: in vivo
# [15] = Toxicity in nude mouse xenografted with human COLO205 cells assessed as body weight loss at 10 to 30 mg/kg, bid for 21 days measured during compound dosing; assay type: organism-based, COLO 205; conditions: in vivo, 504 h
# [16] = Toxicity in nude mouse allografted with mouse LISN cells assessed as body weight loss at 30 mg/kg, qd for 21 days measured during compound dosing; assay type: organism-based; conditions: in vivo, 504 h
# [17] = Toxicity in nude mouse allografted with mouse LISN cells assessed as body weight loss at 30 mg/kg, qd for every 3 days per week for 3 weeks measured during compound dosing; assay type: organism-based; conditions: in vivo
# [18] = Growth inhibition of human MCF7 cells assessed as combination index in presence of lapatinib after 3 days by methylene blue staining-based assay; assay type: functional
# [19] = Growth inhibition of human MDA-MB-453 cells assessed as combination index in presence of lapatinib after 3 days by methylene blue staining-based assay; assay type: functional
structure (smiles),measurement,setting,value
COc1cc(N2CCC(CCS(C)(=O)=O)CC2)ccc1Nc1nccc(-c2c(-c3ccc(OC)c(C(=O)Nc4c(F)cccc4F)c3)nc3cc(F)ccn23)n1,IC50,[1],< 100 nM
same,IC50,Insulin receptor [2],< 100 nM
COc1cc(N2CCC(N3CCCCC3)CC2)ccc1Nc1nccc(-c2c(-c3cccc(C(=O)Nc4c(F)cccc4F)c3)nc3cc(C(F)(F)F)ccn23)n1,IC50,[1],< 100 nM
same,IC50,[3],100 to 500 nM
same,IC50,Insulin receptor [2],< 100 nM
same,IC50,Insulin receptor [4],> 500 nM
CCOc1cc(C2CCN(CCS(C)(=O)=O)CC2)ccc1Nc1nccc(-c2c(-c3ccc(OC)c(C(=O)Nc4c(F)cccc4F)c3)nc3ccccn23)n1,IC50,[1],< 100 nM
same,IC50,Insulin receptor [2],< 100 nM
same,IC50,Insulin receptor [4],< 100 nM
COc1cc(N2CCC(N3CCN(S(C)(=O)=O)CC3)CC2)ccc1Nc1nccc(-c2c(-c3ccc(OC)c(C(=O)Nc4c(F)cccc4F)c3)nc3ccccn23)n1,IC50,[1],< 100 nM
same,IC50,Insulin receptor [2],< 100 nM
same,IC50,Insulin receptor [4],< 100 nM
COc1cc(N2CCC(N3CCN(CCF)CC3)CC2)c(Cl)cc1Nc1nccc(-c2c(-c3cccc(C(=O)Nc4c(F)cccc4F)c3)nc3ccccn23)n1,IC50,[5],< 250 nM
same,IC50,[6],250 to 1000 nM
CCOc1cc(N2CCN(CCS(C)(=O)=O)CC2)c(C)cc1Nc1nccc(-c2c(-c3ccc(OC(C)C)c(C(=O)Nc4c(F)cccc4F)c3)nc3ccccn23)n1,IC50,[1],100 to 1000 nM
same,IC50,[3],< 100 nM
same,IC50,Insulin receptor [2],< 100 nM
same,IC50,Insulin receptor [4],< 100 nM
CCOc1cc(N2CCC(CCS(C)(=O)=O)CC2)c(C)cc1Nc1nccc(-c2c(-c3ccc(OC)c(C(=O)Nc4c(F)cccc4F)c3)nc3cc(F)ccn23)n1,IC50,[1],< 100 nM
same,IC50,Insulin receptor [2],< 100 nM
COc1cc(N2CCC(N3CCN(CCF)CC3)CC2)ccc1Nc1nccc(-c2c(-c3cccc(C(=O)Nc4c(F)cccc4F)c3)nc3ccccn23)n1,Activity,[7],Non-Toxic
same,inhibition in vivo at 10 mg/kg,[8],42%
same,Activity,[9],Non-Toxic
same,Activity,[10],> 20%
same,CI,[11],0.78 - 1.25
same,Activity,[12],Non-Toxic
same,CI,[13],<1
same,Activity,[14],> 20%
same,Activity,[15],Non-Toxic
same,Activity,[16],Non-Toxic
same,Activity,[17],Toxic
same,CI,[18],1
same,CI,[19],0.31
CCOc1ccc(-c2nc3ccccn3c2-c2ccnc(Nc3ccc(C4CCN(CCS(C)(=O)=O)CC4)cc3OC)n2)cc1C(=O)Nc1c(F)cccc1F,IC50,[1],< 100 nM
same,IC50,Insulin receptor [2],< 100 nM
same,IC50,Insulin receptor [4],< 100 nM
COc1cc(N2CCC(N3CCN(CCS(C)(=O)=O)CC3)CC2)c(C)cc1Nc1nccc(-c2c(-c3cccc(C(=O)Nc4c(F)cccc4F)c3)nc3ccccn23)n1,IC50,[1],< 100 nM
same,IC50,Insulin receptor [2],< 100 nM
same,IC50,Insulin receptor [4],< 100 nM
